# Source: the NIST ThermoML archive (doi:10.1016/j.jct.2015.12.020)
# Values joined by “and” are separate entries in the source; they are usually repeats but may differ in a detail not shown here. Equal entries are not always repeated. ± gives the expanded uncertainty stated by the source.
# Key:
# [1] = molar enthalpy of vaporization or sublimation; settings: 298.15 K; Crystal; Static calorimetry
# [2] = Crystal, Calculated from knudsen effusion weight loss
structure (smiles),measurement,setting,value
Cc1n[nH]c(=O)[nH]c1=O [6-azathymine],molar enthalpy,[1],26.1 ± 0.55 kcal/mol
Cc1nnc(S)[nH]c1=O [6-aza-2-thiothymine],molar enthalpy,[1],28.7 ± 0.669 kcal/mol
O=c1cn[nH]c(=O)[nH]1 [6-azauracil],vapor or sublimation pressure,[2]; 377.16 K,0.00012 ± 0.0001 kPa and 0.000109 ± 0.0001 kPa
same,vapor or sublimation pressure,[2]; 379.12 K,0.000138 ± 0.0001 kPa and 0.000142 ± 0.0001 kPa and 0.000131 ± 0.0001 kPa
same,vapor or sublimation pressure,[2]; 381.1 K,0.000167 ± 0.0001 kPa and 0.000164 ± 0.0001 kPa
same,vapor or sublimation pressure,[2]; 383.16 K,0.000205 ± 0.0001 kPa and 0.000198 ± 0.0001 kPa and 0.000227 ± 0.0001 kPa
same,vapor or sublimation pressure,[2]; 385.1 K,0.000252 ± 0.0001 kPa and 0.000229 ± 0.0001 kPa and 0.000269 ± 0.0001 kPa
same,vapor or sublimation pressure,[2]; 387.09 K,0.000301 ± 0.0001 kPa and 0.000282 ± 0.0001 kPa
same,vapor or sublimation pressure,[2]; 389.15 K,0.00037 ± 0.0001 kPa and 0.000355 ± 0.0001 kPa and 0.000413 ± 0.0001 kPa
same,vapor or sublimation pressure,[2]; 391.1 K,0.000452 ± 0.0001 kPa and 0.000422 ± 0.0001 kPa and 0.000477 ± 0.0001 kPa
same,vapor or sublimation pressure,[2]; 393.1 K,0.000538 ± 0.0001 kPa and 0.000515 ± 0.0001 kPa and 0.000575 ± 0.0001 kPa
same,vapor or sublimation pressure,[2]; 395.15 K,0.00061 ± 0.0001 kPa and 0.000596 ± 0.0001 kPa and 0.000684 ± 0.0001 kPa
same,vapor or sublimation pressure,[2]; 397.13 K,0.000756 ± 0.0001 kPa and 0.000711 ± 0.0001 kPa and 0.000812 ± 0.0001 kPa
same,vapor or sublimation pressure,[2]; 399.12 K,0.000901 ± 0.00011 kPa and 0.000859 ± 0.00011 kPa and 0.000945 ± 0.00011 kPa
same,molar enthalpy,[1],28.2 ± 0.502 kcal/mol
